“Also recorded” adds a separate entry of the source. One block for each compound: values may come before it. Where no end group is shown, it is not given here.
Experiments:
[1] = test system: K3a,eRh2 coiled coil; assay: Thermal denaturation of metallopeptide coiled coils monitored by CD; format: physicochemical; details: for melting temperature (Tm) of coiled coil: equimolar mixture of E3X peptide and K3a,eRh2 in aq buffer, CD 222 nm
Experimental: FIG. 4 is a table detailing the thermal denaturation of metallopeptide coiled coils. The following standard conditions: equimolar mixtures of E3X and K3a,eRh2 in aq buffer (pH 5.9-6.2) were monitored by CD (222 nm) from −5 to 95° C. at 1° C./min. The peptide concentrations are 100 μM. The CD monitored is at 225 nm and in certain embodiments, the peptide concentration is 33 μM.
Rhodium(II) centers are capable of forming stabilizing secondary contacts at the periphery of a protein binding interface while examining the coiled-coil assembly of rhodium(II) metallopeptides with histidine-containing peptides. A rhodium(II) center linked to a coil at positions a and e of a heptad repeat abcdefg (See FIG. 4) would be proximal to position g of the complementary peptide, E3gX.
Circular Dichroism Spectroscopy: Thermal denaturation experiments (−5-105° C. with a gradient of 1° C./min) were performed on a Jasco-J810 spectropolarimeter with a Peltier temperature controller (Jasco PTC423S). Solutions of 1:1 E3-peptide and K3-metallopeptide (both components 100 or 33 μM) in aqueous buffer in a 0.1 cm sealed cell were analyzed, and ellipticity data were acquired at 222 nm (red data points, S-5). When imidazole additive was utilized, ellipticity data were acquired at 225 nm. Temperature denaturation curves were fit to a two-state unfolding model and plotted (black line, S-5) as fraction unfolded vs. temperature as described previously by Lavigne et al.8 Error associated with the non-linear least squared-determined Tm was determined using the freely available “Solver Statistics” macro for Microsoft Excel.

[2] = target: T1, CAL PDZ domain (Homo sapiens, UniProt Q9HD26); assay: HSQC footprinting of 15N-CALP; format: binding; details: 125-μM peptide, 2.5% (v/v) DMSO
T1 construct: Expression and purification of the WT and mutant CAL PDZ domains were performed according to commonly described and known methods; made in house
Experimental: HSQC spectra of 15N-CALP determined separately (red) and in the presence of 125-μM E^RhVQSTRL (SEQ ID NO:7) metallopeptide (green) in 2.5% (v/v) DMSO.
The chemical shifts (δ) are reported in units of part per million (ppm) relative to solvent peak. HSQC footprinting: 25 μM N-labeled CAL PDZ protein was also subjected to H, N heteronuclear single quantum correlation spectroscopy (HSQC) analysis, as described, except that tris(2-carboxyethyl)phosphine was omitted from the final dialysis buffers. […] HSQC backbone crosspeaks were assigned by comparison with the previously assigned CALP apo spectrum.

[3] = target: N1P1; assay: N1P1 affinity (uM)
Experimental: Table printed on a drawing sheet, Figure 9B
Title: Metallopeptide ligands for PDZ domains
Head of the field: N1P1 affinity (uM)
The patent's description of the figure: FIG. 9A is a table of metallopeptide inhibitors of CALP. [a], inhibitor equilibrium dissociation (Ki) constants were determined for cognate peptide/metallopeptide pairs. […] In embodiment, [c]
First copying reader's note: The fold values (22x, 95x and so on) are printed beside brackets joining each peptide/Rh-peptide pair and are repeated in both rows; the H301A block stands apart at the right, has no printed unit, and its rows are matched to the sequences by their height on the sheet.
Where the first naming reader finds the target: head: N1P1 affinity (uM)

[4] = target: T2, full-length CAL (Homo sapiens, UniProt Q9HD26); assay: Capture (pulldown) inhibition assay in epithelial cell lysate; format: binding; details: CFBE4lo− cell lysates, BT-iCAL36 bait, n=3
T2 construct: Western blot of native CAL was captured from epithelial lysates; endogenous in cells; host or cells: CFBE41o- epithelial cell lysate
Experimental: Thus, the metalation improves inhibitor potency.
Capture inhibition assays: To determine the ability of inhibitor peptides to displace the interactions of full-length CAL in the presence of the epithelial-cell proteome, a capture inhibition assay was developed. Briefly, using published methods a biotin-conjugated peptide “bait” sequence (BT-iCAL36) was immobilized on streptavidin beads and incubated with clarified lysates of CFBE4lo− cells to capture full-length CAL in the presence of cellular proteins. […] Beads were washed and eluted, and bound proteins were separated by SDS-PAGE and immunoblotted using an α-CAL antibody. Band intensities were separately quantified and averaged (n=3).

[5] = target: T3, CAL PDZ domain (CALP) (Homo sapiens, UniProt Q9HD26); assay: Fluorescence anisotropy inhibition binding assay (displacement of fluorescein-labeled iCAL36 reporter); details: wild-type CALP
T3 construct: Expression and purification of the WT and mutant CAL PDZ domains were performed according to commonly described and known methods; made in house
Experimental: Protein binding studies: Fluorescence anisotropy inhibition binding assays were performed using standard procedures. […] Following equilibration, fluorescence anisotropy values were determined using a Tecan Infinite M1000 plate reader (n=3). Inhibitor equilibrium dissociation (Ki) constants were estimated as described. DMSO and rhodium(II) acetate were used as negative controls for unlabeled and labeled peptides, respectively.

[6] = target: T4, CALP (Homo sapiens, UniProt Q9HD26); assay: CALP affinity (uM)
T4 construct: Western blot of native CAL was captured from epithelial lysates; endogenous in cells; host or cells: CFBE41o- epithelial cell lysate
Excerpt: Head of the field: CALP affinity (uM)

[7] = target: T4, CALP; assay: Ki (μM)
Excerpt: Head of the field: Ki (μM)

coiled coil stability ([1]; assembly with K3a,eRh2): decreased stability
Compound: N[C@@H](CS)C(=O)O [E3gC]

mode of inhibition [2]: competitive inhibitors
Compound: CC(=O)N[C@@H](CCC(=O)O)C(=O)N[C@H](C(=O)N[C@@H](CCC(N)=O)C(=O)N[C@@H](CO)C(=O)N[C@H](C(=O)N[C@@H](CCCNC(=N)N)C(=O)N[C@@H](CC(C)C)C(=O)O)[C@@H](C)O)C(C)C [EVQSTRL]

Ki [3]: > 500 µM
Compound: CC[C@H](C)[C@H](NC(=O)[C@@H](NC(=O)[C@H](CO)NC(=O)[C@@H](NC(=O)[C@@H]1CCCN1C(=O)[C@H](Cc1c[nH]c2ccccc12)NC(=O)[C@H](CCC(=O)O)NC(C)=O)[C@@H](C)O)[C@@H](C)CC)C(=O)O [EWPTSII]

mode of inhibition [2]: competitive inhibitors
Compound: CC(=O)N[C@@H](CCC(=O)O)C(=O)N[C@H](C(=O)N[C@@H](CCC(N)=O)C(=O)N[C@@H](CO)C(=O)N[C@H](C(=O)N[C@@H](CCCNC(=N)N)C(=O)N[C@@H](CC(C)C)C(=O)O)[C@@H](C)O)C(C)C [E^RhVQSTRL]
inhibition of CAL pulldown [4]: improved inhibition; also recorded: dose-dependent inhibition

Ki [3]: > 50 µM
Compound: CC[C@H](C)[C@H](NC(=O)[C@@H](NC(=O)[C@H](CO)NC(=O)[C@@H](NC(=O)[C@@H]1CCCN1C(=O)[C@H](Cc1c[nH]c2ccccc12)NC(=O)[C@H](CCC(=O)O)NC(C)=O)[C@@H](C)O)[C@@H](C)CC)C(=O)O [E^RhWPTSII]

Compound: CC(=O)[O-].CC(=O)[O-].CC(=O)[O-].CC(=O)[O-].[Rh+2].[Rh+2] [Rh2(OAc)4, rhodium(II) acetate]
Ki ([5]; n=3, read-out: Ki (inhibitor equilibrium dissociation constant)): 13 ± 5 µM

Ki [3]: 0.7 µM
CALP affinity [5]: weak CALP affinity
Compound: CC(=O)N[C@H](C(=O)N[C@@H](CCC(N)=O)C(=O)N[C@@H](CC(=O)O)C(=O)N[C@H](C(=O)N[C@@H](CCCNC(=N)N)C(=O)N[C@@H](CC(C)C)C(=O)O)[C@@H](C)O)C(C)C [VQDTRL]

Ki [6]: > 1000 µM
Compound: Ac-EVQSTRF-OH [EVQSTRF]

Ki [6]: > 15 µM
Compound: Ac-EVQSTRF-OH [E^RhVQSTRF]

Ki [7]: > 500 µM
Compound: Ac-QLDVTR-OH [QLDVTR]

Compound: E3cH: E3 coil peptide with histidine moved to position c (Ac-EISALEKEISHLEQEISALEK)
melting temperature (Tm) of coiled coil [1]: 47.0 °C

Compound: E3gE: E3 coil peptide with glutamate at position g (Ac-EISALEKEISALEQEISALEK)
melting temperature (Tm) of coiled coil [1]: 50.2 °C

Compound: E3gF: E3 coil control peptide with non-coordinating phenylalanine at position g (Ac-EISALEKFISALEQEISALEK) [reference compound]
melting temperature (Tm) of coiled coil [1]: 39.5 °C

Compound: E3gM: E3 coil peptide with methionine at position g (Ac-EISALEKMISALEQEISALEK)
melting temperature (Tm) of coiled coil [1]: > 70 °C

CALP affinity [5]: comparable
Compound: QLD^RhVTR: metallopeptide derived from a non-binding, scrambled control sequence (Ac-QLDVTR; also: rhodium(II) metalated, site not placed)

From US9045527B2, “Small molecule conjugates with dimetal species for protein inhibition” (WILLIAM MARSH RICE UNIVERSITY, priority 2012, dated 2015)
